Source: PubChem BioAssay AID2060492 (Molecular Pharmacology Branch, DTP, NCI, 2025)

Tested on: 695427-040-R-J1-PDC complex spheroids, viability percent T/C
Test: Anticancer human tumor 695427-040-R-J1-PDC patient-derived colon adenocarcinoma cell line growth inhibition [GQUAD]
Conditions: for IC50: curve of first compound; for viability, T/C: stronger effect = lower value
Outline: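 Viability of tumor cells grown as complex spheroids with endothelial and stromal cells, exposed to drug combinations. Top concentration at or near clinical Cmax (else 10 microM), diluted in half-log increments.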

[1] = second compound 0.0316 µM, first compound 0.0316 µM
[2] = second compound 0.0316 µM, first compound 0.1 µM
[3] = second compound 0.0316 µM, first compound 0.316 µM
[4] = second compound 0.0316 µM, first compound 1 µM
[5] = second compound 0.0316 µM, first compound 3.16 µM
[6] = second compound 0.0316 µM, first compound 10 µM
[7] = second compound 0.1 µM, first compound 0.0316 µM
[8] = second compound 0.1 µM, first compound 0.1 µM
[9] = second compound 0.1 µM, first compound 0.316 µM
[10] = second compound 0.1 µM, first compound 1 µM
[11] = second compound 0.1 µM, first compound 3.16 µM
[12] = second compound 0.1 µM, first compound 10 µM
[13] = second compound 0.316 µM, first compound 0.0316 µM
[14] = second compound 0.316 µM, first compound 0.1 µM
[15] = second compound 0.316 µM, first compound 0.316 µM
[16] = second compound 0.316 µM, first compound 1 µM
[17] = second compound 0.316 µM, first compound 3.16 µM
[18] = second compound 0.316 µM, first compound 10 µM
[19] = second compound 1 µM, first compound 0.0316 µM
[20] = second compound 1 µM, first compound 0.1 µM
[21] = second compound 1 µM, first compound 0.316 µM
[22] = second compound 1 µM, first compound 1 µM
[23] = second compound 1 µM, first compound 3.16 µM
[24] = second compound 1 µM, first compound 10 µM
[25] = second compound 3.16 µM, first compound 0.0316 µM
[26] = second compound 3.16 µM, first compound 0.1 µM
[27] = second compound 3.16 µM, first compound 0.316 µM
[28] = second compound 3.16 µM, first compound 1 µM
[29] = second compound 3.16 µM, first compound 3.16 µM
[30] = second compound 3.16 µM, first compound 10 µM
[31] = second compound 10 µM, first compound 0.0316 µM
[32] = second compound 10 µM, first compound 0.1 µM
[33] = second compound 10 µM, first compound 0.316 µM
[34] = second compound 10 µM, first compound 1 µM
[35] = second compound 10 µM, first compound 3.16 µM
[36] = second compound 10 µM, first compound 10 µM
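Further: spheroids exposed to compounds for seven days before readout.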

`CC(C)n1c(=O)n(C)c2cnc3cc(F)c(-c4ccc(OCCCN5CCCCC5)nc4)cc3c21` + Cc1[nH]c2ccc(F)cc2c1-c1nc2c3cccnc3c3ncccc3c2[nH]1 gave an IC50 (second compound 0.0316 µM) greater than 10000 nM, an IC50 (second compound 0.1 µM) greater than 10000 nM and an IC50 (second compound 0.316 µM) greater than 10000 nM. For the same compound, the IC50 (second compound 1 µM) was 9840 nM, the IC50 (second compound 3.16 µM) was greater than 10000 nM and the IC50 (second compound 10 µM) was 7230 nM. For the same compound, the viability, T/C [1] was 116%, the viability, T/C [2] was 92.2% and the viability, T/C [3] was 116%. For the same compound, the viability, T/C [4] was 74.3%, the viability, T/C [5] was 93.5% and the viability, T/C [6] was 65.4%. For the same compound, the viability, T/C [7] was 101%, the viability, T/C [8] was 97.2% and the viability, T/C [9] was 128%. It also gave a viability, T/C [10] of 91.7%, a viability, T/C [11] of 94.3% and a viability, T/C [12] of 58.8%. For the same compound, the viability, T/C [13] was 102%, the viability, T/C [14] was 120% and the viability, T/C [15] was 96.4%. The viability, T/C [16] was 98.7%, the viability, T/C [17] was 99.2% and the viability, T/C [18] was 61.3%. The viability, T/C [19] was 84.2%, the viability, T/C [20] was 106% and the viability, T/C [21] was 111%. It also gave a viability, T/C [22] of 109%, a viability, T/C [23] of 106% and a viability, T/C [24] of 49.1%. It also gave a viability, T/C [25] of 86.8%, a viability, T/C [26] of 85% and a viability, T/C [27] of 94.8%. It also gave a viability, T/C [28] of 96.2%, a viability, T/C [29] of 92.2% and a viability, T/C [30] of 50.3%. It also gave a viability, T/C [31] of 61.7%, a viability, T/C [32] of 83% and a viability, T/C [33] of 95.5%. It also gave a viability, T/C [34] of 80.9%, a viability, T/C [35] of 87.1% and a viability, T/C [36] of 37.6%.
`CC1COCCN1c1cc(-c2ccnn2C)c2ccnc(-c3ccn[nH]3)c2n1` (centres undefined) + Cc1[nH]c2ccc(F)cc2c1-c1nc2c3cccnc3c3ncccc3c2[nH]1 showed an IC50 (second compound 0.0316 µM) of 289 nM, an IC50 (second compound 0.1 µM) of 271 nM and an IC50 (second compound 0.316 µM) of 259 nM. The IC50 (second compound 1 µM) was 136 nM, the IC50 (second compound 3.16 µM) was 56.4 nM and the IC50 (second compound 10 µM) was 69.7 nM. It also gave a viability, T/C [1] of 86.8%, a viability, T/C [2] of 63.2% and a viability, T/C [3] of 47.6%. For the same compound, the viability, T/C [4] was 42%, the viability, T/C [5] was 29.8% and the viability, T/C [6] was 27.2%. For the same compound, the viability, T/C [7] was 91.9%, the viability, T/C [8] was 63.6% and the viability, T/C [9] was 53.3%. The viability, T/C [10] was 30.3%, the viability, T/C [11] was 34.9% and the viability, T/C [12] was 30.4%. It also gave a viability, T/C [13] of 78.5%, a viability, T/C [14] of 75.5% and a viability, T/C [15] of 44.7%. For the same compound, the viability, T/C [16] was 28.5%, the viability, T/C [17] was 28.5% and the viability, T/C [18] was 30.1%. It also gave a viability, T/C [19] of 68.5%, a viability, T/C [20] of 54.5% and a viability, T/C [21] of 37.5%. The viability, T/C [22] was 31.8%, the viability, T/C [23] was 31.4% and the viability, T/C [24] was 29.7%. For the same compound, the viability, T/C [25] was 57.8%, the viability, T/C [26] was 41.7% and the viability, T/C [27] was 34.2%. The viability, T/C [28] was 31%, the viability, T/C [29] was 25.5% and the viability, T/C [30] was 27.1%. The viability, T/C [31] was 57.9%, the viability, T/C [32] was 47.5% and the viability, T/C [33] was 35.4%. For the same compound, the viability, T/C [34] was 29.6%, the viability, T/C [35] was 27.3% and the viability, T/C [36] was 20.7%.
